Test results published in US20160120882A1, “COMPOSITION HAVING A BENEFICIAL EFFECT ON THE CARDIOVASCULAR SYSTEM” (ESSENTIAL IP BV, priority 2013, published 2016).
Several values for one entry are separate records, joined by “and”; a condition that tells them apart may be missing. Equal entries are not always repeated. Structures can show the parent of a compound that is named as a salt. Where two headings read alike, the source gives them in different places.

Key:
[1] = clinical studies; cited from earlier work
[2] = cyclosporine 3 mg/kg twice daily; berberine 0.2 g three times a day for three months; cited from earlier work
[3] = cited from earlier work
CYP1A1 = target: T1, CYP1A1 (Homo sapiens, UniProt P04798); settings: in vitro; cited from earlier work
T1 sequence (P04798 1-512): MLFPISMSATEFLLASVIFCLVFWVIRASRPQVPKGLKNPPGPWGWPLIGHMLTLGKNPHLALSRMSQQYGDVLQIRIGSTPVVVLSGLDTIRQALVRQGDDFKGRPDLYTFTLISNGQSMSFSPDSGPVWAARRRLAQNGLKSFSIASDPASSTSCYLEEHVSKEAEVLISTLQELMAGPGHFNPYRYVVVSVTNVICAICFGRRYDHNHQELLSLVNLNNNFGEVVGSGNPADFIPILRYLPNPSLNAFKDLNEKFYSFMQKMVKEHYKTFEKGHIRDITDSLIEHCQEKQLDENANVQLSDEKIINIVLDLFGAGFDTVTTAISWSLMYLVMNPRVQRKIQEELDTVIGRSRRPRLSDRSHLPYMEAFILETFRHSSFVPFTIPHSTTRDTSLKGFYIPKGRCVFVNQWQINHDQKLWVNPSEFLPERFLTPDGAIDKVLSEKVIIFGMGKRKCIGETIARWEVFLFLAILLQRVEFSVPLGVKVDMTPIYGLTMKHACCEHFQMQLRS

[4] = various clinical trial data; cited from earlier work
[5] = subjects with high blood pressure; cited from earlier work
[6] = calculated from the NOAEL in rats; cited from earlier work
[7] = cited from earlier work; remark: listed apart in the source
[8] = lycopene from all sources (EFSA, 2008); cited from earlier work
[9] = cited from earlier work; remark: listed apart in the source
[10] = lycopene group versus 30% in control group; cited from earlier work
[11] = test system: human monocytic THP-1 cells; experiment: uptake of fluorescently labeled oxLDL by PMA-stimulated THP-1 macrophages (foam cell formation model), FACS; type: cell-based; settings: for effect on the uptake of oxLDL: PMA-stimulated THP-1 cells, FIG. 1; for oxLDL uptake, Average: average of 6 independent measurements; for oxLDL uptake, Average / oxLDL uptake [Median Fluorescence intensity]: VitD3 100 nM, lycopene 0.5 uM, monacolin K 10 uM, control average 12617; for oxLDL uptake [Median Fluorescence intensity]: single measurement (1-6), 24 h pre-treatment, then 10 ug/ml Dil-oxLDL 24 h
Description: We employed a model for measuring the oxLDL uptake by macrophages, a known and accepted model for determining foam cell formation, which in turn is an accepted measure for plaque formation as well as for the development of atherosclerosis and decreasing vascular health in general. Our experimental data are therefore relevant for determining the beneficial effects of several active ingredients on the cardiovascular system.
More in detail, we stimulated human monocytic THP-1 cells [Tsuchiya S, Yamabe M, Yamaguchi Y, Kobayashi Y, Konno T, Tada K (August 1980). “Establishment and characterization of a human acute monocytic leukemia cell line (THP-1)”. Int. J. Cancer 26 (2): 171-6. doi:10.1002/ijc.2910260208.] with phorbol 12-myristate 13-acetate (PMA) and contacted or pre-treated the cells with a number of active ingredients. After 24 hours of pre-treatment, the cells were contacted with or exposed to fluorescently labeled oxLDL and uptake of oxLDL was determined after 24 hours (see example 1).
THP-1 cells (P7) were plated in a 96-wells suspension culture plate at a density of 1*10̂6 cells/ml whereby 1*10̂5 cells were plated. Cells were cultured in IMDM phenol-red free medium (Invitrogen, Eugene, Oreg., USA) enriched for 10% fetal calf serum (FCS), 100 U/ml penicillin, 100 μg/ml streptomycin and 2 mM L-glutamin. Monocytes were differentiated with 50 ng/ml phorbol 12-myristate 13-acetate (PMA) (Sigma Aldrich, St. Louis, Mo. USA) for 48 h where after medium was replaced. After differentiation, macrophages were cultured in the presence or absence of different compounds for 24h (Table 2). After pre-treatment, cells were exposed to 10 ug/ml Dil-labeled oxidized lipoprotein (oxLDL) (Biotrend Chemikalien GmbH, Cologne, Germany) for another 24h at 37° C. to enable foam cell formation in the absence of presence of the different compounds (FIG. 1). After this, cells were washed with PBS (−/−) (PAA, Pitscataway, N.J., USA) and detached by Lidocaine hydrochloride (4 mg/ml) EDTA (10 mM) solution (Sigma Aldrich, St. Louis, Mo. USA)/(Invitrogen, Eugene, Oreg., USA). Cells were washed two more times with FACS buffer (PBS containing 0.5% BSA and 0.2 mM EDTA) and transferred to a 96 U-shaped plate for FACS analysis. Analysis was performed on the FACS Canto II HTS and 1,1′-dioctadecyl-3,3,3′3′-tetra-methylindocyanide percholorate (Dip-labeled oxLDL uptake was measured in PE-A channel.
Macrophages were exposed to vitamin D3, lycopene and/or monacolin K and the inhibitory effect of oxLDL uptake of these three active ingredients was measured. The inhibitory potentiol of each compound and composition was expressed as the difference between the measurements obtained with and without the compound or composition.

[12] = daily intake of Red Yeast Rice containing 10 mg monacolin K; cited from earlier work
[13] = rat, in vivo; cited from earlier work
[14] = mouse, in vivo; cited from earlier work
[15] = high versus low dietary intake of vitamin K2; cited from earlier work
[16] = per increase in dietary intake of vitamin K2 by 10 microgram; 8 years, 480 cardiovascular events; cited from earlier work
[17] = subgroup of trials using lycopene dosages of >=25 mg daily

COc1ccc2cc3[n+](cc2c1OC)CCc1cc2c(cc1-3)OCO2 [Berberine]
reduction of total cholesterol [1]: 15-18%
increase of mean cyclosporine A Area under the Curve (AUC) [2]: 34.5%
reduction of fasting plasma insulin ([3]; P<0.001): 28.1%
reduction of insulin resistance index ([3]; P<0.001): 44.7%
HBA1c after treatment ([3]; decreased from 8.1%): 7.3%
effect on CYP1A1 (CYP1A1): inhibit CYP1A1

COC1=C(OC)C(=O)C(C/C=C(\C)CC/C=C(\C)CC/C=C(\C)CC/C=C(\C)CC/C=C(\C)CC/C=C(\C)CC/C=C(\C)CC/C=C(\C)CC/C=C(\C)CCC=C(C)C)=C(C)C1=O [CoQ10, Coenzyme Q10]
observed safety level (OSL) [4]: 1200 mg/day/person
mean decrease in diastolic blood pressure [5]: 7-10 mmHg
mean decrease in systolic blood pressure [5]: 11-17 mmHg
acceptable daily intake (ADI) [6]: 12 mg/kg/day

CC(C)=CCC/C(C)=C/C=C/C(C)=C/C=C/C(C)=C/C=C/C=C(C)/C=C/C=C(C)/C=C/C=C(\C)CCC=C(C)C [Lycopene]
HDL levels ([7]; meta-analysis of 12 studies): remained unchanged
LDL cholesterol lowering [7, 17]: LDL cholesterol lowering of 10%
total serum cholesterol lowering [7, 17]: 10%
LDL cholesterol lowering ([7]; subgroup of trials using lycopene dosages of >=25 mg daily, listed as lycopene): 10%
acceptable daily intake (ADI) [8]: 0.5 mg/kg/day
Systolic blood pressure lowering ([9]; Table 1 summary range): 5.6-9.5 mmHg
systolic blood pressure reducing effect ([9]; meta-analysis of 4 studies): 5.60 mmHg
systolic blood pressure reduction ([9]; subgroup of trials with high blood pressure at baseline (SBP >=140 mm Hg)): 9.35 mmHg
incidence of prostate cancer [10]: 10%
effect on the uptake of oxLDL [11]: slightly inhibited
oxLDL uptake, Average [11]: 11405 Median Fluorescence intensity
oxLDL uptake [Median Fluorescence intensity] [11]: 9832 Median Fluorescence intensity and 11500 Median Fluorescence intensity and 12200 Median Fluorescence intensity and 11900 Median Fluorescence intensity and 11300 Median Fluorescence intensity and 11700 Median Fluorescence intensity

CC[C@H](C)C(=O)O[C@H]1C[C@@H](C)C=C2C=C[C@H](C)[C@H](CC[C@@H]3C[C@@H](O)CC(=O)O3)[C@H]21 [Monacolin K]
LDL cholesterol lowering [12]: LDL cholesterol lowering of 7-25%
lowering of triglyceride blood levels [12]: by 10-44%
relative increase of HDL [12]: Relative increase of HDL up to 17%
effect on the uptake of oxLDL [11]: no effect
oxLDL uptake, Average [11]: 12667 Median Fluorescence intensity
oxLDL uptake [Median Fluorescence intensity] [11]: 14300 Median Fluorescence intensity and 11900 Median Fluorescence intensity and 11700 Median Fluorescence intensity and 11800 Median Fluorescence intensity and 14400 Median Fluorescence intensity

C=C1CC[C@H](O)C/C1=C/C=C1\CCC[C@]2(C)[C@@H]([C@H](C)CCCC(C)C)CC[C@@H]12 [VitD3, Vitamin D3]
effect on the uptake of oxLDL [11]: no effect
oxLDL uptake, Average [11]: 12300 Median Fluorescence intensity
oxLDL uptake [Median Fluorescence intensity] [11]: 13100 Median Fluorescence intensity and 13200 Median Fluorescence intensity and 12600 Median Fluorescence intensity and 10900 Median Fluorescence intensity

COc1ccc2cc3[n+](cc2c1OC)CCc1cc2c(cc1-3)OCO2 [berberine HCL]
LD50 [13]: > 15000 mg/kg
LD50 [14]: > 29586 mg/kg

CC(C)=CCC/C(C)=C/CC/C(C)=C/CC/C(C)=C/CC1=C(C)C(=O)c2ccccc2C1=O [vitamin K2, Vitamin K2]
less calcification of the aorta [15]: 52%
less myocardial infarctions [15]: 57%
less overall mortality [15]: 26%
risk reduction [16]: 9%
